Source: US11420958B2, “Aryl and heteroaryl substituted indole compounds” (BRISTOL-MYERS SQUIBB COMPANY, priority 2017, dated 2022)

How the values were obtained:
Assay type in all cases: cell-based
[1] = biological target: human TLR9 (Homo sapiens (Human), UniProt Q9NR96); assay: TLR9 inhibition reporter assay (HEK-Blue, SEAP); conditions: HEK-Blue cells overexpressing human TLR9, ODN2006 5 nM stimulation
In short: (§1)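 Reporter cells, NF-κB/AP-1-driven SEAP; cmpd 0.05 nM–50 μM final, 30 min RT pre-treat; stim gardiquimod 7.5 μM (TLR7), R848 15.9 μM (TLR8), ODN2006 5 nM (TLR9); 22 h 37 °C; % inhibition of SEAP signal.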

[2] = biological target: human TLR8 (Homo sapiens (Human), UniProt Q9NR97); assay: TLR8 inhibition reporter assay (HEK-Blue, SEAP); conditions: HEK-Blue cells overexpressing human TLR8, R848 15.9 μM stimulation
Chain of human TLR8 (Q9NR97 27-1041): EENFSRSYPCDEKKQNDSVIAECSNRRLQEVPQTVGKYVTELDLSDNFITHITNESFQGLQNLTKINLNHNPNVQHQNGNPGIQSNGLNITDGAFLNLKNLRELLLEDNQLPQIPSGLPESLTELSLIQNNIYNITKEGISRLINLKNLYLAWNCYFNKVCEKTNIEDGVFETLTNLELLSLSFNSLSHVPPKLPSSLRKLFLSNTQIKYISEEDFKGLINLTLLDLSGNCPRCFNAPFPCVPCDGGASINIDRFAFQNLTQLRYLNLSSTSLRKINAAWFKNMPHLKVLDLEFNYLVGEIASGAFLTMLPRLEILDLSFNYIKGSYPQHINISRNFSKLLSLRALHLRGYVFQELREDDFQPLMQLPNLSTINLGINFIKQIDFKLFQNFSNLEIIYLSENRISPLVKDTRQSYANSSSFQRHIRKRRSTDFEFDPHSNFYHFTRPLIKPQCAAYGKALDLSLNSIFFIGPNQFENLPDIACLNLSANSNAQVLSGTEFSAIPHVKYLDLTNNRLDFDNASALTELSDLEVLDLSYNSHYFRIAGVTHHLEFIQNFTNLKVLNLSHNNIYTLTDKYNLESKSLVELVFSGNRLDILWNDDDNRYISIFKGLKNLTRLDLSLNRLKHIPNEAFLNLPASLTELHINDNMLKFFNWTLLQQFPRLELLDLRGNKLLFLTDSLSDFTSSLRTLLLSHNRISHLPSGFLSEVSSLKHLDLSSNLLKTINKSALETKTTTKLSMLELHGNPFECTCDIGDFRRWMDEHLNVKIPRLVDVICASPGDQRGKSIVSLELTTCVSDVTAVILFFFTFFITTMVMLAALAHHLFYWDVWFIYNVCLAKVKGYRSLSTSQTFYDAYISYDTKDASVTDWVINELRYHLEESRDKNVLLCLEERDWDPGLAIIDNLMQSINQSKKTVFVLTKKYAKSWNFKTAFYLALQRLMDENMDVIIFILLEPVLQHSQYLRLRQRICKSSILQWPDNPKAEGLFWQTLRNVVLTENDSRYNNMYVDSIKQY
In short: as §1

[3] = biological target: human TLR7 (Homo sapiens (Human), UniProt Q9NYK1); assay: TLR7 inhibition reporter assay (HEK-Blue, SEAP); conditions: HEK-Blue cells overexpressing human TLR7, gardiquimod 7.5 μM stimulation
Chain of human TLR7 (Q9NYK1 27-1049): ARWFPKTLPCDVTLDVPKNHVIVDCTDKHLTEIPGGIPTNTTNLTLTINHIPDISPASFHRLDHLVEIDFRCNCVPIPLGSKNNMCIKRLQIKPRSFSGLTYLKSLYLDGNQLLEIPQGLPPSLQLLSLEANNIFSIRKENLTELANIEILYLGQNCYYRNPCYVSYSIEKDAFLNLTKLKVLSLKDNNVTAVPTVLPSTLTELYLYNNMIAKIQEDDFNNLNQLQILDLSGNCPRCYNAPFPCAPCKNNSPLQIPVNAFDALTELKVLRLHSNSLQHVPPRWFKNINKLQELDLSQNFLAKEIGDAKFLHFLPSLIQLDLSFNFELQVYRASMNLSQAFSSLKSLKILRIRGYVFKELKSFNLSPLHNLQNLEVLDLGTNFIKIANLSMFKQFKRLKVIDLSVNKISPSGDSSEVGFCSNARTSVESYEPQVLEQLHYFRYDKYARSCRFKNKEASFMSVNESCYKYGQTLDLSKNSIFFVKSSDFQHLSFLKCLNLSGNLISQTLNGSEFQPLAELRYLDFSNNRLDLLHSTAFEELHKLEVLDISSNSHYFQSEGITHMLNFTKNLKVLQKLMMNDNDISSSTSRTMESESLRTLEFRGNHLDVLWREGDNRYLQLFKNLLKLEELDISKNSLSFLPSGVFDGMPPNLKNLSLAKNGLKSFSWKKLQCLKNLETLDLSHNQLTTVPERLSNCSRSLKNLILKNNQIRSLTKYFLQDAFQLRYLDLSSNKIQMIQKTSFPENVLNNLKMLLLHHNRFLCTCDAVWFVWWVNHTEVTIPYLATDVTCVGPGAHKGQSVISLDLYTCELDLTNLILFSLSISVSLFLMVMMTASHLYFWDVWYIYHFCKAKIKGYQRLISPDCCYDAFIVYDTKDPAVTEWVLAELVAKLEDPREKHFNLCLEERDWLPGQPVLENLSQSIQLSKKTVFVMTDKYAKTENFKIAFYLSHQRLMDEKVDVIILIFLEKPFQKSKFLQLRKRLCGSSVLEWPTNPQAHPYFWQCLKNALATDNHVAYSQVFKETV
In short: as §1

Chain of human TLR9 (Q9NR96 26-1032): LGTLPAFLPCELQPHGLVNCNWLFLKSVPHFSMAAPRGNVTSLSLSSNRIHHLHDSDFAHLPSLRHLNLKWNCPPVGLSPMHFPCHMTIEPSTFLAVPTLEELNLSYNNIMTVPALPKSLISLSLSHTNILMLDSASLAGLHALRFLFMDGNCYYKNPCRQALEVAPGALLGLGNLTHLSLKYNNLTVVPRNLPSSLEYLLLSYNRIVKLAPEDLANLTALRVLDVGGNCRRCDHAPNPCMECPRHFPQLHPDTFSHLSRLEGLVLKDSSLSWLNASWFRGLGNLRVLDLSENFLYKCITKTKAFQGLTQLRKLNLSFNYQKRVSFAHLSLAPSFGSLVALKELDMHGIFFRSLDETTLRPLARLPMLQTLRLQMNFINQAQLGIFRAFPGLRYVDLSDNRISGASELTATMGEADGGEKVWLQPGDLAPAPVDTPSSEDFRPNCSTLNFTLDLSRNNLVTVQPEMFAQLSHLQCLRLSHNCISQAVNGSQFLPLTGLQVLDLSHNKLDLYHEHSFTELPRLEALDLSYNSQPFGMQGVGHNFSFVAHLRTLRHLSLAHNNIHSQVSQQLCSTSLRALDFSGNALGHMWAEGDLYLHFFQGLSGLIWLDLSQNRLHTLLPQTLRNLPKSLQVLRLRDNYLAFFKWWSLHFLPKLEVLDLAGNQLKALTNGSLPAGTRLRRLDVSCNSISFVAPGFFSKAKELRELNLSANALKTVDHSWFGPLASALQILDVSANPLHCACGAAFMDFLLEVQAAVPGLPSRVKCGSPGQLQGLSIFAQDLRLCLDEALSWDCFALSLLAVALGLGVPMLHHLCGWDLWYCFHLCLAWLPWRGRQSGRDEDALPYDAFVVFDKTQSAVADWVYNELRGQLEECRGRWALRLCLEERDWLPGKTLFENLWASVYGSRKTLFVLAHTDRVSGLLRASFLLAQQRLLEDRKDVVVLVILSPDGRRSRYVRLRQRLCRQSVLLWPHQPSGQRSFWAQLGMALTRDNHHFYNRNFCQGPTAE

Row | IC50 [1] | IC50 [2] | IC50 [3] | SMILES
1 | > 50 µM | 0.073 µM | 0.774 µM | Cc1cc(-c2[nH]c3ccc(-c4nnc([C@@H]5Cc6ccccc6CN5)o4)cc3c2C(C)C)ccn1 [Example 81, (S)-2-(3-isopropyl-2-(2-methylpyridin-4-yl)-1H-indol-5-yl)-5-(1,2,3,4-tetrahydroisoquinolin-3-yl)-1,3,4-oxadiazole]
2 | 0.979 µM | 0.009 µM | 0.078 µM | COc1ccc(-c2[nH]c3ccc(-c4nnc(C5CCN(C(C)C)CC5)o4)cc3c2C(C)C)cc1OC [Example 4, 2-(3,4-dimethoxyphenyl)-3-(propan-2-yl)-5-{5-[1-(propan-2-yl)piperidin-4-yl]-1,3,4-oxadiazol-2-yl}-1H-indole]
3 | 1.92 µM | 0.0063 µM | 0.051 µM | Cc1cc(-c2[nH]c3ccc(-c4nnc(C5CCCN(C(=O)CN(C)C)C5)[nH]4)cc3c2C(C)C)ccn1 (stereo not drawn) [Example 176, 2-(dimethylamino)-1-(3-(5-(3-isopropyl-2-(2-methylpyridin-4-yl)-1H-indol-5-yl)-4H-1,2,4-triazol-3-yl)piperidin-1-yl)ethan-1-one]
4 | 0.69 µM | 0.0086 µM | 0.033 µM | Cc1cc(-c2[nH]c3ccc(-c4nnc(C5CCN(Cc6ccccc6)CC5)[nH]4)cc3c2C(C)C)ccn1 [Example 163, 5-(5-(1-benzylpiperidin-4-yl)-4H-1,2,4-triazol-3-yl)-3-isopropyl-2-(2-methylpyridin-4-yl)-1H-indole]
5 | 0.654 µM | 0.003 µM | 0.026 µM | Cc1cc(-c2[nH]c3ccc(-c4ccc(NC(=O)CN(C)C)nc4)cc3c2C(C)C)ccn1 [Example 198, 2-(dimethylamino)-N-(5-(3-isopropyl-2-(2-methylpyridin-4-yl)-1H-indol-5-yl)pyridin-2-yl)acetamide]
6 | 12 µM | 0.004 µM | 0.224 µM | Cc1cc(-c2[nH]c3ccc(-c4ccnc(-c5cn[nH]c5)c4)cc3c2C(C)C)ccn1 [Example 258, 5-(2-(1H-pyrazol-4-yl)pyridin-4-yl)-3-isopropyl-2-(2-methylpyridin-4-yl)-1H-indole]
7 | 23 µM | 0.069 µM | 0.063 µM | Cc1cc(-c2[nH]c3ccc(-c4cccnc4)cc3c2C(C)C)cc(C)n1 [Example 304, 2-(2,6-dimethylpyridin-4-yl)-3-isopropyl-5-(pyridin-3-yl)-1H-indole]
8 | 0.821 µM | 0.0048 µM | 0.031 µM | COc1ccc(-c2[nH]c3ccc(-c4nnc(C5CCN(C)CC5)o4)cc3c2C(C)C)cc1OC [Example 20, 2-(2-(3,4-dimethoxyphenyl)-3-isopropyl-1H-indol-5-yl)-5-(1-methylpiperidin-4-yl)-1,3,4-oxadiazole]
9 | 7 µM | 0.209 µM | 0.027 µM | CNC(=O)CN1CCC(c2nnc(-c3ccc4[nH]c(-c5ccc(OC)c(OC)c5)c(C(C)C)c4c3)[nH]2)CC1 [Example 130, 2-(4-(5-(2-(3,4-dimethoxyphenyl)-3-isopropyl-1H-indol-5-yl)-4H-1,2,4-triazol-3-yl)piperidin-1-yl)-N-methylacetamide]
10 | 0.181 µM | 0.0079 µM | 0.005 µM | Cc1cc(-c2[nH]c3ccc(-c4ccnc(C5CCNCC5)c4)cc3c2C(C)C)cc(C)n1 [Example 344, 2-(2,6-dimethylpyridin-4-yl)-3-isopropyl-5-(2-(piperidin-4-yl)pyridin-4-yl)-1H-indole]
11 | > 50 µM | 0.222 µM | 0.371 µM | COc1ccc(-c2[nH]c3ccc(-c4nnc(CN5CCNC(=O)C5)o4)cc3c2C(C)C)cc1OC [Example 120, 4-((5-(2-(3,4-dimethoxyphenyl)-3-isopropyl-1H-indol-5-yl)-1,3,4-oxadiazol-2-yl)methyl)piperazin-2-one]
12 | > 50 µM | 0.138 µM | 1.57 µM | CC(=O)N1CCN(Cc2nnc(-c3ccc4[nH]c(-c5ccnc6[nH]ncc56)c(C(C)C)c4c3)o2)CC1 [Example 153, 1-(4-((5-(3-isopropyl-2-(1H-pyrazolo[3,4-b]pyridin-4-yl)-1H-indol-5-yl)-1,3,4-oxadiazol-2-yl)methyl)piperazin-1-yl)ethan-1-one]

More lines, now with the values behind:

Row | SMILES | IC50 [1] | IC50 [2] | IC50 [3]
13 | CCc1c(-c2ccc(OC)c(OC)c2)[nH]c2ccc(-c3noc([C@@H](N)CCCN)n3)cc12 [Example 463, (S)-1-(3-(2-(3,4-dimethoxyphenyl)-3-ethyl-1H-indol-5-yl)-1,2,4-oxadiazol-5-yl)butane-1,4-diamine] | 7.15 µM | 0.126 µM | 0.772 µM
14 | CC(C)c1c(-c2ccnc3[nH]ncc23)[nH]c2ccc(-c3nnc(CN(C)C(C)C)o3)cc12 [Example 154, N-((5-(3-isopropyl-2-(1H-pyrazolo[3,4-b]pyridin-4-yl)-1H-indol-5-yl)-1,3,4-oxadiazol-2-yl)methyl)-N-methylpropan-2-amine] | > 50 µM | 0.031 µM | 1.41 µM
15 | COc1ccc(-c2[nH]c3ccc(-c4cnc(N5CCN(C(C)C)CC5)cc4C)cc3c2C(C)C)cc1OC [Example 420, 2-(3,4-dimethoxyphenyl)-3-isopropyl-5-(6-(4-isopropylpiperazin-1-yl)-4-methylpyridin-3-yl)-1H-indole] | 0.693 µM | 0.0047 µM | 0.334 µM
16 | CCc1c(-c2ccc(OC)c(OC)c2)[nH]c2ccc(-c3noc(C4CCN(C(C)C)CC4)n3)cc12 [Example 445, 3-(2-(3,4-dimethoxyphenyl)-3-ethyl-1H-indol-5-yl)-5-(1-isopropylpiperidin-4-yl)-1,2,4-oxadiazole] | 1.85 µM | 0.037 µM | 0.338 µM
17 | CC(C)c1c(-c2ccnc3[nH]ncc23)[nH]c2ccc(-c3nnc(C(=O)N4CC5CNCC5C4)o3)cc12 (stereo not drawn) [Example 85, (hexahydropyrrolo[3,4-c]pyrrol-2(1H)-yl)(5-(3-isopropyl-2-(1H-pyrazolo[3,4-b]pyridin-4-yl)-1H-indol-5-yl)-1,3,4-oxadiazol-2-yl)methanone] | 0.59 µM | 0.0092 µM | 0.328 µM
18 | COc1ccc(-c2[nH]c3ccc(-c4ccnc(C(=O)N[C@H]5CC[C@H](C(C)(C)O)CC5)c4)cc3c2C(C)C)cc1OC [Example 13, 4-(2-(3,4-dimethoxyphenyl)-3-isopropyl-1H-indol-5-yl)-N-((1r,4r)-4-(2-hydroxypropan-2-yl)cyclohexyl)picolinamide] | > 50 µM | 1.01 µM | 1.24 µM
19 | COc1ccc(-c2[nH]c3ccc(-c4nnc(CCN(C)C)o4)cc3c2C(C)C)cc1OC [Example 43, 2-(5-(2-(3,4-dimethoxyphenyl)-3-isopropyl-1H-indol-5-yl)-1,3,4-oxadiazol-2-yl)-N,N-dimethylethan-1-amine] | 1.46 µM | 0.002 µM | 0.04 µM
20 | Cc1cc(-c2[nH]c3ccc(-c4nnc(CCN(C)C)o4)cc3c2C(C)C)cc(C)n1 [Example 270, 2-(5-(2-(2,6-dimethylpyridin-4-yl)-3-isopropyl-1H-indol-5-yl)-1,3,4-oxadiazol-2-yl)-N,N-dimethylethan-1-amine] | 0.298 µM | 0.001 µM | 0.01 µM
21 | CCc1c(-c2ccnc(C)c2)[nH]c2ccc(-c3noc(C4CCCNC4)n3)cc12 (stereo not drawn) [Example 457, 3-(3-ethyl-2-(2-methylpyridin-4-yl)-1H-indol-5-yl)-5-(piperidin-3-yl)-1,2,4-oxadiazole] | 0.686 µM | 0.011 µM | 0.228 µM
22 | Cc1cc(-c2[nH]c3ccc(-c4nc(C(=O)N[C@H]5CC[C@H](N)CC5)co4)cc3c2C(C)C)cc(C)n1 [Example 282] | 2.38 µM | 0.016 µM | 0.072 µM
23 | COc1ccc(-c2[nH]c3ccc(-c4nnc(C(=O)N5CCC(N6CCOCC6)C5)o4)cc3c2C(C)C)cc1OC (stereo not drawn) [Example 99, (5-(2-(3,4-dimethoxyphenyl)-3-isopropyl-1H-indol-5-yl)-1,3,4-oxadiazol-2-yl)(3-morpholinopyrrolidin-1-yl)methanone] | 16.3 µM | 0.086 µM | 0.565 µM
24 | Cc1cc(-c2[nH]c3ccc(-c4nnc(C(=O)NC5CCN(C(C)C)CC5)o4)cc3c2C(C)C)cc(C)n1 [Example 221, 5-(2-(2,6-dimethylpyridin-4-yl)-3-isopropyl-1H-indol-5-yl)-N-(1-isopropylpiperidin-4-yl)-1,3,4-oxadiazole-2-carboxamide] | 0.515 µM | 0.0025 µM | 0.015 µM
25 | COc1ccc(-c2[nH]c3ccc(-c4cnc(N5CCN(CC(C)C)CC5)cc4C)cc3c2C(C)C)cc1OC [Example 418, 2-(3,4-dimethoxyphenyl)-5-(6-(4-isobutylpiperazin-1-yl)-4-methylpyridin-3-yl)-3-isopropyl-1H-indole] | 3.54 µM | 0.041 µM | 0.879 µM
26 | CC(C)c1c(-c2ccnc3[nH]ncc23)[nH]c2ccc(-c3nnc(C[C@@H]4CCCN4)o3)cc12 [Example 104, (S)-2-(3-isopropyl-2-(1H-pyrazolo[3,4-b]pyridin-4-yl)-1H-indol-5-yl)-5-(pyrrolidin-2-ylmethyl)-1,3,4-oxadiazole] | 0.15 µM | 0.0017 µM | 0.031 µM
27 | CC(C)c1c(-c2ccnc3[nH]ncc23)[nH]c2ccc(-c3nnc(C4CCNCC4)o3)cc12 [Example 102, 2-(3-isopropyl-2-(1H-pyrazolo[3,4-b]pyridin-4-yl)-1H-indol-5-yl)-5-(piperidin-4-yl)-1,3,4-oxadiazole] | 0.611 µM | 0.011 µM | 0.125 µM
28 | Cc1cc(-c2[nH]c3ccc(-c4nc(C(=O)NCCCN(C)C)co4)cc3c2C(C)C)cc(C)n1 [Example 280, N-(3-(dimethylamino)propyl)-2-(2-(2,6-dimethylpyridin-4-yl)-3-isopropyl-1H-indol-5-yl)oxazole-4-carboxamide] | 0.156 µM | 0.0018 µM | 0.0038 µM
